Patent US8614240B2, “Benzoxazole derivatives having inhibitory activity against interleukin-6, preparation method thereof, and pharmaceutical composition containing the same” (EWHA University-Industry Collaboration Foundation, priority 2010, dated 2013)

Columns and labels:
[1] = test system: IL-6 induced ERK phosphorylation; assay: Test for inhibitory activity against ERK phosphorylation induced by IL-6 (Western blot, HepG2); format: cell-based, human; conditions: HepG2, 30 μg/ml (FIG. 5)
Description: HepG2 cell was divisionally inoculated in 6-well plate, and then starved for 18 hours.
The starved cells were treated with the samples for one hour, and then stimulated with IL-6 or LIF (Upstate Biotechnology, USA) for 10 minutes. The specimen was treated with 5× cell lysis buffer (Promega) sometimes with vortexing under ice for 30 minutes. The cell lysate obtained as described under B in Experiment 1 (3) was dissolved in 8% SDS-PAGE gel, and transferred to the nitrocellulose membrane. This membrane was blocked with Tris-buffered solution (50 mM Tris-HCl (pH 7.4), 150 mM NaCl, 0.1% Tween 20) containing 5% non-fat dry milk at 4° C. Then, it was incubated together with an appropriate primary antibody (ERK) present in Tris-buffered solution (50 mM Tris-HCl (pH 7.4), 150 mM NaCl, 0.1% Tween 20) containing 5% non-fat dry milk, at room temperature for 1-2 hours. This membrane was washed five times with TBS buffer solution for 10 minutes, and incubated with 1:6000 diluted horseradish peroxidase-conjugated secondary antibodies for one hour. The membrane was washed 10 times with TBS buffer solution, and then mixed and incubated with the 1:1 mixture of HRP Substrate Luminol Reagent and HRP Substrate Peroxide Solution as ELC reagent (Millipore Corp. Ma USA). The chemiluminescent signals were visualized with X-ray film.

Respective cell lines = assay: Cytotoxicity assay (MTT); format: cell-based; conditions: 48 hours
Description: In testing the compounds in cell lines, if cells are killed due to a toxicity of the compounds at the treatment concentration, a significant result cannot be obtained. Therefore, the toxicity assay was conducted by treatment with the compounds as follows. Respective cell lines were maintained on 96-well cell culture plate in the medium comprising 10% FBS with 1% Penicillin G/streptomycin, and then incubated under 37° C., 5% CO2 condition. All the experiments were repeated three times. The samples were properly diluted, and then cells were treated with the diluted samples at the concentrations of 1, 3, 10, 30, 100 μg/ml. After 48 hours, 10% (v/v) 5 mg/mL 3-(4,5-dimethylthiazol-2-yl)-2,5-diphenyltetrazolium bromide (MTT; Sigma) was added to the cell culture. After 3 hours of the incubation, the medium was aspirated and washed with PBS. After adding DMSO (100 μl), the mixture was gently agitated for 5 minutes. The absorbance was measured at 570 nm by means of VERSA max microplate reader (Molecular Devices Inc.), and the average absorbance (±SE) values as obtained from three experiments were compared with t-test, a statistical significance of P<0.05. When Compounds 1 and 3 were used at the concentrations of 1, 3, 10, 30, 100 μg/ml, the survival rates of cells were 94, 76, 70, 67, 30%, respectively, by the treatment with Compound 1, and 74, 71, 65, 57, 19%, respectively, by the treatment with Compound 3. It means that at least 50% of cells survive at the concentration (for example, 30 μg/ml) of the compounds of the present invention for measuring IL-6 inhibitory activity.

[2] = test system: IL-6 reactive STAT3 reporter gene; assay: IL-6 reactive STAT3 reporter gene test (pSTAT3-TA-Luc6 luciferase) in HepG2 cells; format: cell-based; conditions: Homo sapiens
Description: A pSTAT3-TA-Luc6 construct, which comprises 8 more STAT3 DNA binding sequence copies as compared to pSTAT-3-TA-Luc and thus, enables to better reflect STAT3 reporter gene assay, was prepared. STAT3 DNA binding sequence was amplified using pSTAT3-TA-Luc plasmid (Clontech, Palo Alto, Calif.) as the template, and oligonucleotide ([…]. SEQ ID NO: 1 (containing Kpn I site)) and oligonucleotide ([…] GAAGCAACGTTC (containing Xho I site)) as forward primer and reverse primer, respectively, by means of a thermocycler. The amplified PCR product was cloned, separated, and then inserted into Kpn I/Xho I site of pSTAT3-TA-Luc plasmid.
Human hepatoma cell line, HepG2 cell, was incubated in MEM (Minimal Essential Medium, WelGENE Inc, Daegu, Korea) medium under water-saturated condition at 37° C., 5% CO2. To this medium was added 10% (v/v) fetal bovine serum, streptomycin (100 U/mL) and penicillin (100 U/mL). 6-Well cell culture plate was allowed to grow cells up to 80%, and then the specimen was pre-treated for one hour. Then, the medium was changed into 50 μL of serum-free medium, and the mixed solution of 0.1 μL pSTAT3-TA-Luc6 construct and 0.3 μL lipofectamin reagent was added to each well and then allowed to react for 3 hours to transfect cells with pSTAT3-TA-Luc6 construct. The medium was changed to a fresh medium, and the plate was incubated for 24 hours to transiently transfect cells. The transfected cells were serum-starved with 1% BSA/DMEM, and treated with the samples for one hour and then, after adding IL-6, incubated for 3 hours. The mixture was washed with PBS, shaken for one minute with addition of 50 μL of lysis buffer (promega luciferase assay system). After adding 30-100 μL of luciferase substrate (Promega luciferase assay system), the mixture was measured by a luminometer within 5 minutes.
Among others Compounds 1 and 3 as the materials having high inhibitory effect on IL-6 activity were used at various concentration to measure the degree of inhibitory effect, and the results thereof are as shown in FIGS. 2 and 3.

CCc1ccc(Nc2nc3cc(NC(=O)c4ccccc4)ccc3o2)cc1 [Compound 3, N-(2-(4-ethylphenylamino)benzo[d]oxazol-5-yl)benzamide]
Influence on IL-6 induced ERK phosphorylation [1]: did not influence on ERK phosphorylation | Survival rate of cells (Respective cell lines; 1 μg/ml): 74% | Survival rate of cells (Respective cell lines; 3 μg/ml): 71% | Survival rate of cells (Respective cell lines; 10 μg/ml): 65% | Survival rate of cells (Respective cell lines; 30 μg/ml): 57% | Survival rate of cells (Respective cell lines; 100 μg/ml): 19% | IC50 ([2]; HepG2, read-out: IC50 of IL-6 inhibitory activity (STAT3 reporter gene)): 5.8 µM | inhibition at 20 µg/mL ([2]; HepG2, read-out: Inhibition % of IL-6 reactive STAT3 reporter gene activity, 20 ug/ml of sample, HepG2 cells): > 80%
